Test results taken from ChEMBL document CHEMBL1138287, “Stereoselective synthesis of a novel 2-aza-7-oxabicyclo[3.3.0]octane as neurokinin-1 receptor antagonist” (Bioorg Med Chem Lett, 2007).

How the values were obtained:
Cavia porcellus [1] = organism: Cavia porcellus; assay: Antagonist activity in guinea pig ureter assessed as inhibition of capsaicin-induced plasma extravasation; format: functional
Substance-P receptor = Substance-P receptor (Homo sapiens, UniProt P25103); assay: Displacement of [3H]substance P from NK1 human receptor expressed in IM9 cells; format: cell-based, IM-9
[2] = biological target: Voltage-gated L-type calcium channel (Rattus norvegicus, UniProt P22002+Q02485+P27732); assay: Displacement of [3H]desmethoxyverapamil from verapamil binding site of L type calcium channel in rat heart
Cavia porcellus [3] = assay: Antagonist activity in guinea pig ureter assessed as inhibition of capsaicin-induced plasma extravasation at 1 mg/kg, po; format: functional
Cavia porcellus [4] = assay: Antagonist activity in guinea pig ureter assessed as inhibition of capsaicin-induced plasma extravasation at 10 mg/kg, po; format: functional

Chain of Substance-P receptor (P25103 whole entry): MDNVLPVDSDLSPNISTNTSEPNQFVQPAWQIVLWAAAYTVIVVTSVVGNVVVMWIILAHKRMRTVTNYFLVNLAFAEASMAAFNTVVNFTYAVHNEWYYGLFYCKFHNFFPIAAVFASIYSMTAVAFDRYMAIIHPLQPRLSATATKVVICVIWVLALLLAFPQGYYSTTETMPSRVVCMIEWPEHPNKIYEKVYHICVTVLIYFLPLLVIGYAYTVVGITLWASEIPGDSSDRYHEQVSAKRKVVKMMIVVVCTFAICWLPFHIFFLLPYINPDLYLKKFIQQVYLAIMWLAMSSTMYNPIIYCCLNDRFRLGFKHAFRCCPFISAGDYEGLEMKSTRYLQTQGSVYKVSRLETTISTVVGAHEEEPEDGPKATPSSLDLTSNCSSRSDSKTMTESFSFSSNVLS

IC50 (Substance-P receptor) [nM]	IC50 [2] [nM]	SMILES	ED50 (Cavia porcellus [1]) [mg/kg]	inhibition in vivo at 1 mg/kg (Cavia porcellus [3]) [%]	inhibition in vivo at 10 mg/kg (Cavia porcellus [4]) [%]
0.22	> 1000	COc1ccc(OC(F)(F)F)cc1CN[C@H]1[C@@H]2COC[C@@H]2N[C@H]1c1ccccc1 (racemic)	1	10	94
3.4	> 1000	COc1ccccc1CN[C@H]1[C@@H]2CCC[C@@H]2N[C@H]1c1ccccc1 (racemic)	–	–	–
